Experimental data published in the Kinase Knowledgebase extract (Sharma et al. 2016).

What was measured:
MAPK14 = MAPK14 (UniProt Q16539); experiment: In vitro Inhibition of MAPK14 Kinase Activity
MAPK14 (human) = MAPK14 (human) (UniProt Q16539); experiment: In vitro Inhibition of TNF-alpha Production in PBMC Cells
MAPK14 (BALB/cJ mice) = experiment: In vivo Inhibition of LPS-induced TNF-alpha Production; conditions: dose or concentration not given here

Sequence of MAPK14 (Q16539 whole entry, looked up): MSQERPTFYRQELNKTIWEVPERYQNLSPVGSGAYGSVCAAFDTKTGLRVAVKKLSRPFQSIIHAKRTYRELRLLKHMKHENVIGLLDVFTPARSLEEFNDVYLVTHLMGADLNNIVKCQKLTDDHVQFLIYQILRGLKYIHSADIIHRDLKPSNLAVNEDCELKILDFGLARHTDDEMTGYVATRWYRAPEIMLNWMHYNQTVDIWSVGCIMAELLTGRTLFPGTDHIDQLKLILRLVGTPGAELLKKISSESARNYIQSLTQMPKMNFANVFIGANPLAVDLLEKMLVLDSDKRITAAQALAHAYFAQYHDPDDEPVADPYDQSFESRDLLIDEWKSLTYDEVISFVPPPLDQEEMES
Sequence of MAPK14 (human) (Q16539 whole entry, looked up): as above

SMILES | IC50 (MAPK14) [nM] | IC50 (MAPK14 (human)) [nM] | inhibition (MAPK14 (BALB/cJ mice)) [%]
CCCNC(=O)c1c(-c2ccc(F)cc2)c(-c2ccncc2)c(N2CCNCC2)n1C | 10000 | 10000 | 
COC(=O)c1c(-c2ccc(F)cc2)c(-c2ccncc2)c(N2CCOCC2)n1C | 10000 | 47 | -41
COC(=O)c1c(-c2ccc(F)cc2)c(-c2ccncc2)c(N2CCNCC2)n1C | 10000 | 33 | 73
COC(=O)c1c(-c2ccc(F)cc2)c(-c2ccncc2)c(N2CCN(C)CC2)n1C | 2000 | 95 | 89
Fc1ccc(-c2c[nH]c(CN3CCc4ccccc4C3)c2-c2ccncc2)cc1 | 2000 | 40 | 63
Cn1c(C(=O)C2CC2)c(-c2ccc(F)cc2)c(-c2ccncc2)c1N1CCN(C(=O)C2CC2)CC1 | 10000 | 36 | 
Cn1c(N2CCCC2)c(-c2ccncc2)c(-c2ccc(F)cc2)c1C(C)(C)O | 2000 | 192 | 37.7
COC(=O)c1c(-c2ccc(F)cc2)c(-c2ccncc2)c(N2CCCC2)n1C | 10000 | 17 | -38
CN1CCN(c2c(-c3ccncc3)c(-c3ccc(F)cc3)c(C#N)n2C)CC1 | 2000 | 80 | 47
CC(=O)c1c(-c2ccc(F)cc2)c(-c2ccncc2)c(N2CCNCC2)n1C | 10000 | 40 | 39
CC(=O)c1c(-c2ccc(F)cc2)c(-c2ccncc2)c(N2CCN(C(C)=O)CC2)n1C | 2000 | 43 | 
COC(=O)c1c(-c2ccc(F)cc2)c(-c2ccncc2)c(N)n1C | 10000 | 51 | 53.9
CCOC(=O)c1c(-c2cc(F)cc(F)c2)c(-c2ccncc2)c(Br)n1C | > 10000 | 2720 | -36
CC(=O)N1CCN(c2c(-c3ccncc3)c(-c3ccc(F)cc3)c(C#N)n2C)CC1 | 2000 | 154 | 81
COC(=O)c1c(-c2ccc(F)cc2)c(-c2ccncc2)c(Nc2ccc(N(C)C)cc2)n1C | > 10000 | 118 | 15
COC(=O)C(=O)c1c(-c2ccc(F)cc2)c(-c2ccncc2)c(N2CCNCC2)n1C | 10000 | 28 | 52
CCCc1c(-c2ccnc(N[C@@H](C)c3ccccc3)n2)c(-c2ccc(F)cc2)cn1CCN1CCOCC1 | 10000 | 4 | -35
CON(C)C(=O)c1c(-c2ccc(F)cc2)c(-c2ccncc2)c(N2CCN(C(=O)OC(C)(C)C)CC2)n1C |  | 72 | 45
CCOC(=O)c1c(-c2ccc(F)cc2)c(-c2ccncc2)c(CCCOCc2ccccc2)n1C |  | 248 | 51
O=C1CCn2c(Br)c(-c3ccncc3)c(-c3ccc(F)cc3)c21 |  | 819 | 31
